Measurements published in patent publication US8067442B2, “Heterocyclic antiviral compounds” (Roche Palo Alto LLC, priority 2008, dated 2011).

These molecules were tested against T1, HCV polymerase (NS5B570n-Con1) (Hepatitis C virus genotype 1b, UniProt Q9WMX2) (assay: biochemical).
T1 construct: a 21 amino acid C-terminal deletion of full-length HCV polymerase; made in house; host or cells: E. coli BL21(DE3) pLysS, plasmid pET17b
Design: species or system HCV Con1 strain
Procedure: The enzymatic activity of HCV polymerase (NS5B570n-Con1) was measured as the incorporation of radiolabeled nucleotide monophosphates into acid insoluble RNA products. Unincorporated radiolabeled substrate was removed by filtration and scintillant was added to the washed and dried filter plate containing radiolabeled RNA product. The amount of RNA product generated by NS5B570n-Con1 at the end of the reaction was directly proportional to the amount of light emitted by the scintillant.
The HCV polymerase used in the enzymatic activity assay is a 21 amino acid C-terminal deletion of full-length HCV polymerase derived from HCV Con1 strain, genotype 1b (GenBank accession number AJ242654) (NS5B570n-Con1). The NS5B570n-Con1 was sub-cloned downstream to the T7 promoter of the plasmid expression construct pET17b and transformed into E. coli strain BL21(DE3) pLysS for protein expression. A single colony was used to start an innoculum for a 10 L culture in LB media supplemented with 100 μg/mL ampicillin at 37° C. Protein expression was induced by the addition of 0.25 mM isopropyl-β-D-thiogalactopyranoside (IPTG) when the optical density of the culture at […] was 0.8. Induction of protein expression was carried out at 30° C. for 16 h after which the cells were harvested by centrifugation. NS5B570n-Con1 was purified to homogeneity using a three-column purification protocol including subsequent column chromatography on Ni-NTA, SP-Sepharose HP and Superdex 75 resins.
Enzymatic reactions in the presence of cIRES RNA template (see section [0300]) contained 20 nM cIRES RNA, 20 nM NS5B570n-Con1 enzyme, 0.5 μCi of tritiated UTP (Perkin Elmer catalog no. TRK-412; specific activity: 30 to 60 Ci/mmol), 1 μM each ATP, CTP, and GTP, 40 mM Tris-HCl pH 8.0, 40 mM NaCl, 4 mM DTT (dithiothreitol), 4 mM MgCl2, 5 μl of compound serial diluted in DMSO, and nuclease-free water to a final reaction volume of 50 μl. Enzymatic reactions in the presence of 20 nM cIRES template, 20 nM NS5B570n-Con1 enzyme, 1 μCi of tritiated UTP (Perkin Elmer catalog no. TRK-412; specific activity: 30 to 60 Ci/mmol), 40 mM Tris-HCl pH 8.0, 40 mM NaCl, 4 mM DTT (dithiothreitol), 4 mM MgCl2, 5 μl of compound serial diluted in DMSO, and nuclease-free water to a final reaction volume of 50 μl. Reaction mixtures were assembled in 96-well filter plates (cat #MADVNOB, Millipore Co.) and incubated for 2 h at 30° C. Reactions were stopped by addition of 10% final (v/v) trichloroacetic acid and incubated for 40 min at 4° C. Reactions were filtered, washed with 8 reaction volumes of 10% (v/v) trichloroacetic acetic acid, 4 reaction volumes of 70% (v/v) ethanol, air dried, and 25 μl of scintillant (Microscint 20, Perkin-Elmer) was added to each reaction well.
Two RNA templates can be used to assay compounds described herein. The cIRES RNA template is 377 nucleotide long and consisting of a partial complementary sequence (36 nucleotides) of the core protein, followed by 341 nucleotide of the complementary sequence of the internal ribosome entry site. The poly A RNA template (GE Amersham catalog number 27-4110) was a homopolymeric RNA pre-annealed to a oligo(rU)16 primer at a molar ratio of 3-to-1 (primer-template). The cIRES template was used in the assay unless otherwise noted.
The amount of light emitted from the scintillant was converted to counts per minute (CPM) on a Topcount® plate reader (Perkin-Elmer, Energy Range: Low, Efficiency Mode Normal, Count Time: 1 min, Background Subtract: none, Cross talk reduction: Off).
Data was analyzed in Excel® (Microsoft®) and ActivityBase® (Idbs®). The reaction in the absence of enzyme was used to determine the background signal, which was subtracted from the enzymatic reactions. […] All data was expressed as a percentage of the positive control. The compound concentration at which the enzyme-catalyzed rate of RNA synthesis was reduced by 50% (IC50) was calculated by fitting

Going from CC(C)(C)c1cc(-c2ncc[nH]c2=O)cc2c(C(=O)N3CCOC(CNS(C)(=O)=O)C3)coc12 (stereo not drawn) [Compound 100, N-{4-[7-tert-Butyl-5-(3-oxo-3,4-dihydro-pyrazin-2-yl)-benzofuran-3-carbonyl]-morpholin-2-ylmethyl}-methanesulfonamide] to CC(C)(C)c1cc(-c2ccc[nH]c2=O)cc2c(C(=O)N3CCOC(CNS(C)(=O)=O)C3)csc12 (stereo not drawn) [Compound 112, N-{4-[7-tert-Butyl-5-(2-oxo-1,2-dihydro-pyridin-3-yl)-benzo[b]thiophene-3-carbonyl]-morpholin-2-ylmethyl}-methanesulfonamide], the IC50 falls from 28 nM to 4 nM (7-fold).

Going from CC(C)(C)c1cc(-c2ccc[nH]c2=O)cc2c(C(=O)N3CCCC(F)(CNS(C)(=O)=O)C3)coc12 (stereo not drawn) [Compound 124, N-{1-[7-tert-Butyl-5-(2-oxo-1,2-dihydro-pyridin-3-yl)-benzofuran-3-carbonyl]-3-fluoro-piperidin-3-ylmethyl}-methanesulfonamide] to CC(C)(C)c1cc(-c2ccc[nH]c2=O)cc2c(C(=O)N3CCC[C@H](NS(C)(=O)=O)C3)coc12 [Compound I-47], the IC50 rises from 6 nM to 172 nM (29-fold). The first is the more potent here.

First: CC(C)(C)c1cc(-c2ccc[nH]c2=O)cc2c(C(=O)N3CCCC(CCS(C)(=O)=O)C3)coc12 (stereo not drawn) [Compound 132, 3-{7-tert-Butyl-3-[3-(2-methanesulfonyl-ethyl)-piperidine-1-carbonyl]-benzofuran-5-yl}-1H-pyridin-2-one]
Second: CC(C)(C)c1cc(-c2ccc[nH]c2=O)cc2c(C(=O)N3CCCC(CO)C3)coc12 (stereo not drawn) [Compound I-14]
The IC50 of the first is 2.3-fold lower: 29 nM for the first, 66 nM for the second. The first is the more potent here.

CCOC(=O)c1coc2c(C(C)(C)C)cc(-c3ccc[nH]c3=O)cc12 [Compound I-3, 7-tert-butyl-5-(2-oxo-1,2-dihydro-pyridin-3-yl)-benzofuran-3-carboxylic acid ethyl ester] and CC(C)(C)c1cc(-c2ccc[nH]c2=O)cc2c(C(=O)O)coc12 [Compound I-4, 7-tert-butyl-5-(2-oxo-1,2-dihydro-pyridin-3-yl)-benzofuran-3-carboxylic acid] are within 1.5-fold of each other in IC50: 258 nM for the first, 381 nM for the second.

Going from CC(C)(C)c1cc(-c2ccc[nH]c2=O)cc2c(C(=O)N3CCOCC3)coc12 [Compound I-7] to CC(C)(C)c1cc(-c2ccc[nH]c2=O)cc2c(C(=O)N3CCCC3)coc12 [Compound I-51], the IC50 falls from 142 nM to 12 nM (12-fold).

CC(C)(C)c1cc(-c2ccc[nH]c2=O)cc2c(CO)coc12 [Compound I-8] and CNC(=O)c1coc2c(C(C)(C)C)cc(-c3ccc[nH]c3=O)cc12 [Compound I-22] are within 1.5-fold of each other in IC50: 515 nM for the first, 770 nM for the second.

Compared with CC(C)NC(=O)c1coc2c(C(C)(C)C)cc(-c3ccc[nH]c3=O)cc12 [Compound I-9], CC(C)CNC(=O)c1coc2c(C(C)(C)C)cc(-c3ccc[nH]c3=O)cc12 [Compound I-10] is 3.8-fold lower in IC50: 1540 nM for the first, 404 nM for the second. The second is the more potent here.

Compared with CC(C)CN(C)C(=O)c1coc2c(C(C)(C)C)cc(-c3ccc[nH]c3=O)cc12 [Compound I-11], CCN(CCOC)C(=O)c1coc2c(C(C)(C)C)cc(-c3ccc[nH]c3=O)cc12 [Compound I-25] is 2.8-fold higher in IC50: 475 nM for the first, 1330 nM for the second.

Compared with CC(C)(C)c1cc(-c2ccc[nH]c2=O)cc2c(C(=O)N3CCC(O)CC3)coc12 [Compound I-12], CC(C)(C)c1cc(-c2ccc[nH]c2=O)cc2c(C(=O)N3CCC(O)C3)coc12 (stereo not drawn) [Compound I-65] is 2-fold higher in IC50: 63 nM for the first, 126 nM for the second.

First: CC(C)(C)c1cc(-c2ccc[nH]c2=O)cc2c(C(=O)N3CCCCC3)coc12 [Compound I-13]
Second: CC(C)(C)c1cc(-c2ccc[nH]c2=O)cc2c(C(=O)N3CCNCC3)coc12 [Compound I-28]
The IC50 of the first is 40-fold lower: 48 nM for the first, 1940 nM for the second.

Going from CC(C)(C)c1cc(-c2ccc[nH]c2=O)cc2c(C(=O)N3CCOC(CO)C3)coc12 (stereo not drawn) [Compound I-15] to CC(C)(C)c1cc(-c2ccc[nH]c2=O)cc2c(C(=O)N3CCCC(O)C3)coc12 (stereo not drawn) [Compound I-27], the IC50 falls from 325 nM to 186 nM (1.7-fold).

Compared with CC(C)(C)c1cc(-c2ccc[nH]c2=O)cc2c(C(=O)N3CCC[C@H]3CO)coc12 [Compound I-17], CC(C)(C)c1cc(-c2ccc[nH]c2=O)cc2c(C(=O)N3CCCC(C(N)=O)C3)coc12 (stereo not drawn) [Compound I-61] is 1.7-fold lower in IC50: 112 nM for the first, 66 nM for the second. The second is the more potent here.

First: CC(C)(C)c1cc(-c2ccc[nH]c2=O)cc2c(C(=O)NC3(CO)CCCC3)coc12 [Compound I-18]
Second: CC(C)(C)c1cc(-c2ccc[nH]c2=O)cc2c(C(=O)N3CCC(O)(C(N)=O)CC3)coc12 [Compound I-64]
The IC50 of the first is 49-fold higher: 4800 nM for the first, 97 nM for the second. The second is the more potent here.

Compared with COCCN(CCOC)C(=O)c1coc2c(C(C)(C)C)cc(-c3ccc[nH]c3=O)cc12 [Compound I-19], Cc1ccsc1C(=O)c1coc2c(C(C)(C)C)cc(-c3ccc[nH]c3=O)cc12 [Compound I-31] is 63-fold lower in IC50: 4350 nM for the first, 69 nM for the second. The second is the more potent here.

CC(C)(C)c1cc(-c2ccc[nH]c2=O)cc2c(C(=O)Nc3ccccc3)coc12 [Compound I-23] and COc1cccc(C(=O)c2coc3c(C(C)(C)C)cc(-c4ccc[nH]c4=O)cc23)c1 [Compound I-30, 3-[7-tert-Butyl-3-(3-methoxy-benzoyl)-benzofuran-5-yl]-1H-pyridin-2-one] are within 1.5-fold of each other in IC50: 425 nM for the first, 329 nM for the second.

Compared with COC(=O)C1COc2c1cc(-c1ccc[nH]c1=O)cc2C(C)(C)C (stereo not drawn) [Compound I-26, 7-tert-Butyl-5-(2-oxo-1,2-dihydro-pyridin-3-yl)-2,3-dihydro-benzo furan-3-carboxylic acid methyl ester], COC(=O)[C@@H]1C[C@@H](O)CN1C(=O)c1coc2c(C(C)(C)C)cc(-c3ccc[nH]c3=O)cc12 [Compound I-63] is 44-fold higher in IC50: 37 nM for the first, 1610 nM for the second.

First: CC(C)(C)c1cc(-c2ccc[nH]c2=O)cc2c(-c3cccc(C#N)c3)coc12 [Compound I-32]
Second: CC(C)(C)c1cc(-c2ccc[nH]c2=O)cc2c(-c3cccc(O)c3)coc12 [Compound I-34]
The IC50 of the first is 1.6-fold higher: 38 nM for the first, 24 nM for the second.

Compared with CC(C)(C)c1cc(-c2ccc[nH]c2=O)cc2c(-c3ccc(C#N)cc3)coc12 [Compound I-35], CC(C)(C)c1cc(-c2ccc[nH]c2=O)cc2c(-c3cccc(CN)c3)coc12 [Compound I-62] is 12-fold higher in IC50: 72 nM for the first, 893 nM for the second.

Going from CC(C)(C)OC(=O)N[C@@H]1CCCN(C(=O)c2coc3c(C(C)(C)C)cc(-c4ccc[nH]c4=O)cc23)C1 [Compound I-38] to CC(C)(C)OC(=O)N[C@H]1CCCN(C(=O)c2coc3c(C(C)(C)C)cc(-c4ccc[nH]c4=O)cc23)C1 [Compound I-40], the IC50 rises from 132 nM to 1410 nM (11-fold).

Going from CC(C)(C)OC(=O)NC1CCN(C(=O)c2coc3c(C(C)(C)C)cc(-c4ccc[nH]c4=O)cc23)CC1 [Compound I-39] to CC(C)(C)OC(=O)NCC1CCN(C(=O)c2coc3c(C(C)(C)C)cc(-c4ccc[nH]c4=O)cc23)C1 (stereo not drawn) [Compound I-45], the IC50 falls from 4370 nM to 76 nM (58-fold).

First: CC(=O)N1CCN(C(=O)c2coc3c(C(C)(C)C)cc(-c4ccc[nH]c4=O)cc23)CC1 [Compound I-52]
Second: CC(C)(C)c1cc(-c2ccc[nH]c2=O)cc2c(C(=O)N3CCC(C(N)=O)CC3)coc12 [Compound I-58]
The IC50 of the first is 4.4-fold higher: 1250 nM for the first, 282 nM for the second.

First: CN(C)[C@H]1CCN(C(=O)c2coc3c(C(C)(C)C)cc(-c4ccc[nH]c4=O)cc23)C1 [Compound I-53]
Second: CC(C)(C)c1cc(-c2ccc[nH]c2=O)cc2c(C(=O)N3CCC(NC(=O)C(F)(F)F)C3)coc12 (stereo not drawn) [Compound I-60]
The IC50 of the first is 8.9-fold higher: 454 nM for the first, 51 nM for the second. The second is the more potent here.

With CC(C)(C)c1cc(-c2ccc[nH]c2=O)cc2c(C(=O)N3CCC(NC(=O)C(F)(F)F)CC3)coc12 [Compound I-55] the IC50 was 2280 nM.
